This is an account of results in patent US11713338B2, “Cyclic peptides multimers targeting α-4-β-7 integrin” (priority 2016, dated 2023).

The target in assay [1] is T1, integrin α4β1 (RAMOS human cells adhering to VCAM-1) (Homo sapiens, UniProt P05556+P13612).
T1 construct: Ramos cells, which express integrin α4β1; host or cells: RAMOS
Nature of the assay: Integrin α4β1-VCAM cell adhesion assay (RAMOS cells). It is filed as cell-based. The note with it: for IC50: Ramos cells adhering to VCAM, read-out: Ramos Adhesion α4β1/VCAM IC50; for Ratio Ramos/RPMI: ratio of cell adhesion IC50s, Ramos α4β1/VCAM over RPMI8866 α4β7/MAdCAM. As to the method: Integrin α4β1-VCAM Cell Adhesion Assay
The plate was incubated overnight at 4° C. and washed twice with 150 μl per well wash buffer (0.05% Tween 20 in PBS), blocked with 250 μl per well blocking buffer (1% non-fat dry milk in PBS), for 1 hour at room temperature. During blocking step, RAMOS cells were resuspended at 10 million cells/ml in PBS containing […] and incubated at 37° C. for 30 min in a 50 ml tube. […] The plate was emptied by inverting and blotting on paper towels and washed manually twice with PBS. […] To calculate the dose response, the fluorescence value of control wells not containing cells was subtracted from each test well.

Assay [2] has as its target T2, recombinant integrin α4β7 (Homo sapiens, UniProt P13612+P26010, DEL724-798).
T2 construct: purchased R&D Systems 5397-A3-050
T2 sequence (P13612 34-970 limits assumed): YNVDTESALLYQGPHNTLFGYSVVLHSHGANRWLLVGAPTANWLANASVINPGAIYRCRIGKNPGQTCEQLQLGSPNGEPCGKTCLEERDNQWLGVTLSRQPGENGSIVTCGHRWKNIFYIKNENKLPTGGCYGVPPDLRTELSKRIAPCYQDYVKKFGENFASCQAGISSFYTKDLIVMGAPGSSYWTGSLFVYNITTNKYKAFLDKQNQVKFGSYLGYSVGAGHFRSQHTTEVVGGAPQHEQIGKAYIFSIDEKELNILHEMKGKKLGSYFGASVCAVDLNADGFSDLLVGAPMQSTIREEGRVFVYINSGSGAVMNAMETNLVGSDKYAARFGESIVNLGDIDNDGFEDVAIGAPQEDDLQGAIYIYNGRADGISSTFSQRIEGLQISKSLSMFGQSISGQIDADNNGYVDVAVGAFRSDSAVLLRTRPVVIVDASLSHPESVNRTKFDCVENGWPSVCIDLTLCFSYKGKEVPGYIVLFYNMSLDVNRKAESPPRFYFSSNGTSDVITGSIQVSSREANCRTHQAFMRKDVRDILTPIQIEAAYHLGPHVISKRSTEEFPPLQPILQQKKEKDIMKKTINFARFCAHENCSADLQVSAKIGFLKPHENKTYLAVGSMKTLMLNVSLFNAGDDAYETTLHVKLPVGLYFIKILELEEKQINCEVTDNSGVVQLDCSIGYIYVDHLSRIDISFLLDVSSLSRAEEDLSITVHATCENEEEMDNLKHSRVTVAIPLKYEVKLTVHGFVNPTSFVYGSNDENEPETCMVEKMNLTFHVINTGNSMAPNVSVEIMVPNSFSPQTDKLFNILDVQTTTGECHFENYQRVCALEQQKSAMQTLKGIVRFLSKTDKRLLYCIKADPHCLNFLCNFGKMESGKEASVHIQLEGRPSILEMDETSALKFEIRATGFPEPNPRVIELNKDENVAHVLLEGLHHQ
T2 sequence (P26010 20-723 limits assumed): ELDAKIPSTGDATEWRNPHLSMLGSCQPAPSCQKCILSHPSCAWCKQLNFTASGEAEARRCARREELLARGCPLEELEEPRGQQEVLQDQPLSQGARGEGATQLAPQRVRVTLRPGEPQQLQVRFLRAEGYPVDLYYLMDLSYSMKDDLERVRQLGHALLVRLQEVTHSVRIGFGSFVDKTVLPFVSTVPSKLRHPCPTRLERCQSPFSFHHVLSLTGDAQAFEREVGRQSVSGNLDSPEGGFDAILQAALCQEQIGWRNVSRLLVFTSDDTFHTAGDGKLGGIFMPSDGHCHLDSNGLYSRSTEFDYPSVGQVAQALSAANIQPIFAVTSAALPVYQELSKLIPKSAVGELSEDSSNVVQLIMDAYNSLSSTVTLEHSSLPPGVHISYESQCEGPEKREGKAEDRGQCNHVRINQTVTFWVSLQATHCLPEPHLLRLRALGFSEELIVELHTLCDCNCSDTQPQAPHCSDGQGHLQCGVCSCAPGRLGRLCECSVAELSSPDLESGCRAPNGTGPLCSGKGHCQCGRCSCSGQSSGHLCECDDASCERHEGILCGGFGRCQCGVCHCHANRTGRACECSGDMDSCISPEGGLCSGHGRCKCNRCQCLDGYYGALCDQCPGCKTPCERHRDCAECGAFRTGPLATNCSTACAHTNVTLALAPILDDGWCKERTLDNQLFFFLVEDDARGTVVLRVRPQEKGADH
Nature of the assay: Integrin α4β7—MAdCAM-1 ELISA competition assay. The format is binding. The note with it: read-out: ELISA α4β7 Assay IC50.
Experimental: Integrin α4β7—MAdCAM-1 ELISA Competition Assay
The plate was incubated at 40C overnight. […] The plate was then incubated for 1 hour at room temperature. The plate was washed three times with wash buffer (50 mM Tris, 100 mM NaCl, 1 mM MnCl2, 0.05% Tween). To each well, 50 μl of compound diluted in assay buffer was added by transfer from a compound serial dilution plate. […] The plate was incubated at room temperature with shaking (300 rpm) for 2 hours to reach binding equilibrium. […] The plate was incubated at room temperature for 1 hour under agitation.

Assay [3] has as its target T3, recombinant integrin α4β1 (Homo sapiens, UniProt P05556+P13612).
T3 construct: purchased R&D Systems 5397-A3-050
Nature of the assay: Integrin α4β1—VCAM-1 competition ELISA. It is filed as binding. The note with it: for ELISA Assay Ratio β1/β7: ratio of ELISA IC50s, α4β1 over α4β7; for IC50: read-out: ELISA α4β1 Assay IC50. The gist of the method:
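Detection of bound ligand used HRP-conjugated anti-human IgG Fc, 1 h with agitation at room temperature. This followed a 2 h room-temperature, 300 rpm equilibration of compound in the coated wells. Washes were done in 50 mM Tris, 100 mM NaCl, 1 mM MnCl2, 0.05% Tween.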
Background: ELISA stands for enzyme-linked immunosorbent assay.

T3 sequence (P05556 21-728 limits assumed, one chain of several): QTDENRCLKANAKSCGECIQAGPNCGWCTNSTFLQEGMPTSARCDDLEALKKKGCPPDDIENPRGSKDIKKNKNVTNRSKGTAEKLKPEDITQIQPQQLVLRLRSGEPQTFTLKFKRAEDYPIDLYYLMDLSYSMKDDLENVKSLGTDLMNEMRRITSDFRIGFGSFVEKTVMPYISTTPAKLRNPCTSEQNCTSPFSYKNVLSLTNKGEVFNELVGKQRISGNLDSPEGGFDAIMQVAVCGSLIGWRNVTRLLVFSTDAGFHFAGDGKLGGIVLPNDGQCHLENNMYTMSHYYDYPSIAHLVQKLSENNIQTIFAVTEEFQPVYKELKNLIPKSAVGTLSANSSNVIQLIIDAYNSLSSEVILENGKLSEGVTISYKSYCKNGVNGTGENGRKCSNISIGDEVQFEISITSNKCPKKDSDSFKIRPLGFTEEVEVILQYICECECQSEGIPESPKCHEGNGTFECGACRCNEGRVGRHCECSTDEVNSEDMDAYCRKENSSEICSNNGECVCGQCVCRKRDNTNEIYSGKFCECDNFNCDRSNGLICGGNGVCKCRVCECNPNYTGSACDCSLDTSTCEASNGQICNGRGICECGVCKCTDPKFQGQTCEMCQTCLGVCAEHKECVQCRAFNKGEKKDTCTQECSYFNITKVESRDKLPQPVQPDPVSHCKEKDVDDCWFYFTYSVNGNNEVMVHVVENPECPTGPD
T1 sequence (P13612 34-1032): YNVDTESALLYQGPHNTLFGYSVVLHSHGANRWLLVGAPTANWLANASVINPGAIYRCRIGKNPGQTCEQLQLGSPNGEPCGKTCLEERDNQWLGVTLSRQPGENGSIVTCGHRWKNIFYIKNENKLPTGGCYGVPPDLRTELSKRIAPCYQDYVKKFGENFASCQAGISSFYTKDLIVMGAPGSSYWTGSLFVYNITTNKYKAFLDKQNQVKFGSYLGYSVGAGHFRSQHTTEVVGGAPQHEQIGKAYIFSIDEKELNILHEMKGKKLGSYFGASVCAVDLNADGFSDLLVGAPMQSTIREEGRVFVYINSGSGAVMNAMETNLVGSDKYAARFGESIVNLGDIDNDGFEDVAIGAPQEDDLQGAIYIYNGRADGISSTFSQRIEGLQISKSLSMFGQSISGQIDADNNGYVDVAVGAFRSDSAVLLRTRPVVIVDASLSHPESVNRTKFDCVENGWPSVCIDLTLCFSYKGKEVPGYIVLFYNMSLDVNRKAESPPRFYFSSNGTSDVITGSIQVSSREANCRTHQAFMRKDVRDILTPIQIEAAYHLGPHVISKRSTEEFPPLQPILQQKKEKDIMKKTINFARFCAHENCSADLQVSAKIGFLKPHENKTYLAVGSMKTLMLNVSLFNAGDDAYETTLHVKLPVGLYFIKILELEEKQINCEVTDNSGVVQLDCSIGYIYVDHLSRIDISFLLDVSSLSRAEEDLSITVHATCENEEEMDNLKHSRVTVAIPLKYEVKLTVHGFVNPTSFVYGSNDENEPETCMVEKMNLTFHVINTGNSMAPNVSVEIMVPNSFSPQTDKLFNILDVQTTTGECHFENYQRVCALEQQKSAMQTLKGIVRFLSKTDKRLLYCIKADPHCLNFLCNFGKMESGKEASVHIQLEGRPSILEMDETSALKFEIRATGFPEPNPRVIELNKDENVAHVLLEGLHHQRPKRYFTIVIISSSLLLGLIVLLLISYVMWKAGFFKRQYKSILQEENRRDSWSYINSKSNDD
T1 sequence (P05556 21-798): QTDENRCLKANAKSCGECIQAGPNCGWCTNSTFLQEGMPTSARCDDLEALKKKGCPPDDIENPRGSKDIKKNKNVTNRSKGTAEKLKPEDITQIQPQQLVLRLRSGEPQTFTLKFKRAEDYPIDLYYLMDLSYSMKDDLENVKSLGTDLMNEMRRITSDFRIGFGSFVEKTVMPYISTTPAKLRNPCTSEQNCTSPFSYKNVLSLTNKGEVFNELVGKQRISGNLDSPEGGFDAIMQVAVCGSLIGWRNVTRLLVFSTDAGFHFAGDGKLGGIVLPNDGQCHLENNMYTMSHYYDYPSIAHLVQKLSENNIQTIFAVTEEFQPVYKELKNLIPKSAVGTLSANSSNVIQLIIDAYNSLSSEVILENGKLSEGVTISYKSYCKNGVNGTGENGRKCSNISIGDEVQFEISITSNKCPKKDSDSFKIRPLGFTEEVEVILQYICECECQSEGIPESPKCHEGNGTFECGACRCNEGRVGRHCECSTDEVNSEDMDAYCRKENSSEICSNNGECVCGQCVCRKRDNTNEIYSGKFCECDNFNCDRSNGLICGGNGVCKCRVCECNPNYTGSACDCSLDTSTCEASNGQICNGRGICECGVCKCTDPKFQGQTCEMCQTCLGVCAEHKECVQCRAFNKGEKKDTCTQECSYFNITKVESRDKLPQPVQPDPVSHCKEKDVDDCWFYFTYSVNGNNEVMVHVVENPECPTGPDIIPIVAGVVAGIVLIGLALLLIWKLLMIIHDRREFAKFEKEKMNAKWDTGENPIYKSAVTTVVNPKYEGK

Regarding `CC(C)C[C@@H]1NC(=O)c2ccc(-c3ccc(N4CCN(C(=O)C5(C(=O)N6CCN(c7ccc(-c8ccc9cc8CNC(=O)[C@@H]8CCCN8[C@H](C(=O)NC(C)(C)C)[C@H](C)NC(=O)[C@H]([C@@H](C)O)NC(=O)[C@H](CC(=O)O)NC(=O)[C@H](CC(C)C)NC9=O)cc7)CC6)Cc6ccccc6C5)CC4)cc3)c(c2)CNC(=O)[C@@H]2CCCN2[C@H](C(=O)NC(C)(C)C)[C@H](C)NC(=O)[C@H]([C@@H](C)O)NC(=O)[C@H](CC(=O)O)NC1=O` [Compound 461], the IC50 in assay [1] turned out to be 1220 nM; in assay [2], 18 nM; in assay [3] it was 7.9 nM. The “Ratio Ramos/RPMI” value in assay [1] amounted to 31. For the same compound, the “ELISA Assay Ratio β1/β7” value in assay [3] was found to be 0.4.

For the compound `COc1cc(C(=O)N2CCN(c3ccc(-c4ccc5cc4CNC(=O)[C@@H]4CCCN4[C@H](C(=O)NC(C)(C)C)[C@H](C)NC(=O)[C@H]([C@@H](C)O)NC(=O)[C@H](CC(=O)O)NC(=O)[C@H](CC(C)C)NC5=O)cc3)CC2)cc(-c2ccc(C(=O)N3CCN(c4ccc(-c5ccc6cc5CNC(=O)[C@@H]5CCCN5[C@H](C(=O)NC(C)(C)C)[C@H](C)NC(=O)[C@H]([C@@H](C)O)NC(=O)[C@H](CC(=O)O)NC(=O)[C@H](CC(C)C)NC6=O)cc4)CC3)cc2F)c1` [Compound 464], the IC50 amounted to 1550 nM in assay [1], 61 nM in assay [2] and 22 nM in assay [3].

`CC(C)C[C@@H]1NC(=O)c2ccc(-c3ccc(N4CCN(C(=O)c5ccc(-c6cccc(C(=O)N7CCN(c8ccc(-c9ccc%10cc9CNC(=O)[C@@H]9CCCN9[C@H](C(=O)NC(C)(C)C)[C@H](C)NC(=O)[C@H]([C@@H](C)O)NC(=O)[C@H](CC(=O)O)NC(=O)[C@H](CC(C)C)NC%10=O)cc8)CC7)n6)nc5)CC4)cc3)c(c2)CNC(=O)[C@@H]2CCCN2[C@H](C(=O)NC(C)(C)C)[C@H](C)NC(=O)[C@H]([C@@H](C)O)NC(=O)[C@H](CC(=O)O)NC1=O` [Compound 466]: in assay [1], the IC50 was 3240 nM and the “Ratio Ramos/RPMI” value is given as 34. In addition, in assay [2], the IC50 worked out at 14 nM. In assay [3], the “ELISA Assay Ratio β1/β7” value amounted to 0.3 and the IC50 stood at 4.2 nM.

As for `CC(C)C[C@@H]1NC(=O)c2ccc(-c3ccc(N4CCN(C(=O)c5nccnc5C(=O)N5CCN(c6ccc(-c7ccc8cc7CNC(=O)[C@@H]7CCCN7[C@H](C(=O)NC(C)(C)C)[C@H](C)NC(=O)[C@H]([C@@H](C)O)NC(=O)[C@H](CC(=O)O)NC(=O)[C@H](CC(C)C)NC8=O)cc6)CC5)CC4)cc3)c(c2)CNC(=O)[C@@H]2CCCN2[C@H](C(=O)NC(C)(C)C)[C@H](C)NC(=O)[C@H]([C@@H](C)O)NC(=O)[C@H](CC(=O)O)NC1=O` [Compound 467], in assay [1], the IC50 came out at 876 nM and the “Ratio Ramos/RPMI” value is listed as 20. Also, in assay [2], the IC50 amounted to 8.6 nM. In addition, in assay [3], the “ELISA Assay Ratio β1/β7” value was 0.1 and the IC50 is 1 nM.

On to `CC(C)C[C@@H]1NC(=O)c2ccc(-c3ccc(N4CCN(c5ncc([N+](=O)[O-])c(N6CCN(c7ccc(-c8ccc9cc8CNC(=O)[C@@H]8CCCN8[C@H](C(=O)NC(C)(C)C)[C@H](C)NC(=O)[C@H]([C@@H](C)O)NC(=O)[C@H](CC(=O)O)NC(=O)[C@H](CC(C)C)NC9=O)cc7)CC6)n5)CC4)cc3)c(c2)CNC(=O)[C@@H]2CCCN2[C@H](C(=O)NC(C)(C)C)[C@H](C)NC(=O)[C@H]([C@@H](C)O)NC(=O)[C@H](CC(=O)O)NC1=O` [Compound 468], for which the IC50 is 677 nM in assay [1], 32 nM in assay [2] and 10 nM in assay [3]. In assay [1], the “Ratio Ramos/RPMI” value came out at 51. Moreover, in assay [3], the “ELISA Assay Ratio β1/β7” value was 0.3.

Take `CC(C)C[C@@H]1NC(=O)c2ccc(-c3ccc(N4CCN(C(=O)c5cc(-c6ccccc6)c(C(=O)N6CCN(c7ccc(-c8ccc9cc8CNC(=O)[C@@H]8CCCN8[C@H](C(=O)NC(C)(C)C)[C@H](C)NC(=O)[C@H]([C@@H](C)O)NC(=O)[C@H](CC(=O)O)NC(=O)[C@H](CC(C)C)NC9=O)cc7)CC6)cc5-c5ccccc5)CC4)cc3)c(c2)CNC(=O)[C@@H]2CCCN2[C@H](C(=O)NC(C)(C)C)[C@H](C)NC(=O)[C@H]([C@@H](C)O)NC(=O)[C@H](CC(=O)O)NC1=O` [Compound 469]: the IC50 in assay [1] worked out at 44 nM; in assay [2], 36 nM; in assay [3] it was 10 nM. Besides, the “ELISA Assay Ratio β1/β7” value in assay [3] worked out at 0.3.

On to `CC(C)C[C@@H]1NC(=O)c2ccc(-c3ccc(N4CCN(C(=O)c5ccc(C(=O)N6CCN(c7ccc(-c8ccc9cc8CNC(=O)[C@@H]8CCCN8[C@H](C(=O)NC(C)(C)C)[C@H](C)NC(=O)[C@H]([C@@H](C)O)NC(=O)[C@H](CC(=O)O)NC(=O)[C@H](CC(C)C)NC9=O)cc7)CC6)s5)CC4)cc3)c(c2)CNC(=O)[C@@H]2CCCN2[C@H](C(=O)NC(C)(C)C)[C@H](C)NC(=O)[C@H]([C@@H](C)O)NC(=O)[C@H](CC(=O)O)NC1=O` [Compound 470], for which the IC50 worked out at 1110 nM in assay [1], 5.4 nM in assay [2] and 1 nM in assay [3]. Moreover, the “Ratio Ramos/RPMI” value in assay [1] was 66. Also, in assay [3], the “ELISA Assay Ratio β1/β7” value was found to be 0.2.

Turning to `CC(C)C[C@@H]1NC(=O)c2ccc(-c3ccc(N4CCN(C(=O)c5ccc(-c6ccc(C(=O)N7CCN(c8ccc(-c9ccc%10cc9CNC(=O)[C@@H]9CCCN9[C@H](C(=O)NC(C)(C)C)[C@H](C)NC(=O)[C@H]([C@@H](C)O)NC(=O)[C@H](CC(=O)O)NC(=O)[C@H](CC(C)C)NC%10=O)cc8)CC7)cc6)cc5)CC4)cc3)c(c2)CNC(=O)[C@@H]2CCCN2[C@H](C(=O)NC(C)(C)C)[C@H](C)NC(=O)[C@H]([C@@H](C)O)NC(=O)[C@H](CC(=O)O)NC1=O` [Compound 474], in assay [1], the IC50 was 1300 nM and the “Ratio Ramos/RPMI” value was 95. The IC50 in assay [2] was determined as 19 nM. For the same compound, in assay [3], the “ELISA Assay Ratio β1/β7” value is listed as 0.4 and the IC50 amounted to 7.1 nM.

For the compound `CC(C)C[C@@H]1NC(=O)c2ccc(-c3ccc(N4CCN(CC(=O)N5CCN(c6ccc(-c7ccc8cc7CNC(=O)[C@@H]7CCCN7[C@H](C(=O)NC(C)(C)C)[C@H](C)NC(=O)[C@H]([C@@H](C)O)NC(=O)[C@H](CC(=O)O)NC(=O)[C@H](CC(C)C)NC8=O)cc6)CC5)CC4)cc3)c(c2)CNC(=O)[C@@H]2CCCN2[C@H](C(=O)NC(C)(C)C)[C@H](C)NC(=O)[C@H]([C@@H](C)O)NC(=O)[C@H](CC(=O)O)NC1=O` [Compound 481], the IC50 in assay [1] was found to be 940 nM; in assay [2] it was 7.1 nM; in assay [3] it was 1.6 nM. Also, in assay [1], the “Ratio Ramos/RPMI” value amounted to 26. For the same compound, in assay [3], the “ELISA Assay Ratio β1/β7” value is 0.2.
